Values quoted from earlier work as cited in patent US8729024B2, “Targeted delivery of pharmaceutical compounds” (The Resesarch Foundation of State University of New York, priority 2006, dated 2014).

System: animal models of Duchenne muscular dystrophy (DMD), multiple sclerosis, myasthenia gravis, hearing loss and traumatic nerve injury

Compound: CC(=O)N[C@@H](CC(C)C)C(=O)N[C@@H](CC(C)C)C(=O)N[C@H](C=O)CCCNC(=N)N [leupeptin]
- therapeutic effect in animal models: therapeutic benefit
